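In this assay, cells in 96-well plates receive the compound at five concentrations for 48 hours. Endpoints are linearly interpolated between the surrounding concentrations. Abbreviation: GI50, concentration required for 50% inhibition of growth. TGI denotes the concentration required for complete inhibition of growth.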
Tests used:
Test in all cases: inhibition of tumour cell growth, NCI panel, 48 h
MOLT-4 leukemia = system: MOLT-4 leukemia
A549 NSCLC = system: A549 NSCLC
SNB-19 CNS = system: SNB-19 CNS
SR leukemia = system: SR leukemia
LOX IMVI melanoma = system: LOX IMVI melanoma
MALME-3M melanoma = system: MALME-3M melanoma
M14 melanoma = system: M14 melanoma
NCI-H23 lung = system: NCI-H23 lung
OVCAR-4 ovarian = system: OVCAR-4 ovarian
SK-MEL-28 melanoma = system: SK-MEL-28 melanoma
COLO 205 colon = system: COLO 205 colon
SW-620 colon = system: SW-620 colon
SN12C renal = system: SN12C renal
HCT-116 colon = system: HCT-116 colon
KM12 colon = system: KM12 colon
RXF 393 renal = system: RXF 393 renal
SF-295 CNS = system: SF-295 CNS
HCT-15 colon = system: HCT-15 colon
NCI-H460 lung = system: NCI-H460 lung
ACHN renal = system: ACHN renal
CCRF-CEM leukemia = system: CCRF-CEM leukemia
RPMI-8226 leukemia = system: RPMI-8226 leukemia
HT29 colon = system: HT29 colon
HOP-62 NSCLC = system: HOP-62 NSCLC
NCI-H226 lung = system: NCI-H226 lung
786-0 renal = system: 786-0 renal
A498 renal = system: A498 renal
DU-145 prostate = system: DU-145 prostate
UO-31 renal = system: UO-31 renal
SK-MEL-5 melanoma = system: SK-MEL-5 melanoma
SF-268 CNS = system: SF-268 CNS
SK-OV-3 ovarian = system: SK-OV-3 ovarian
OVCAR-5 ovarian = system: OVCAR-5 ovarian
UACC-257 melanoma = system: UACC-257 melanoma
SF-539 CNS = system: SF-539 CNS
U251 CNS = system: U251 CNS
BT-549 breast = system: BT-549 breast
UACC-62 melanoma = system: UACC-62 melanoma
HCC-2998 colon = system: HCC-2998 colon
T-47D breast = system: T-47D breast
NCI/ADR-RES ovarian = system: NCI/ADR-RES ovarian
NCI-H522 lung = system: NCI-H522 lung
SNB-75 CNS = system: SNB-75 CNS
MDA-MB-231 breast = system: MDA-MB-231 breast
HS 578T breast = system: HS 578T breast
HOP-92 NSCLC = system: HOP-92 NSCLC
MDA-MB-435 = system: MDA-MB-435
MCF7 breast = system: MCF7 breast
OVCAR-8 ovarian = system: OVCAR-8 ovarian
SK-MEL-2 melanoma = system: SK-MEL-2 melanoma
K-562 leukemia = system: K-562 leukemia
IGROV1 ovarian = system: IGROV1 ovarian
OVCAR-3 ovarian = system: OVCAR-3 ovarian
HL-60(TB) leukemia = system: HL-60(TB) leukemia
PC-3 prostate = system: PC-3 prostate
CAKI-1 renal = system: CAKI-1 renal
TK-10 renal = system: TK-10 renal
EKVX NSCLC = system: EKVX NSCLC

## Cc1nc2cc(Nc3nc(Nc4ccc(F)cc4)nc(-c4ccc(Cl)cc4)n3)ccc2n1Cc1ccccc1
MOLT-4 leukemia
  GI50: 3.09 µM
  TGI: > 100 µM
A549 NSCLC
  GI50: 6.18 µM
  TGI: 36.9 µM
SNB-19 CNS
  GI50: 9.77 µM
  TGI: > 100 µM
SR leukemia
  GI50: 2.88 µM
  TGI: 9.55 µM
LOX IMVI melanoma
  GI50: 12.6 µM
  TGI: > 100 µM
MALME-3M melanoma
  GI50: 5.29 µM
  TGI: 22.4 µM
M14 melanoma
  GI50: 4.42 µM
  TGI: > 100 µM
NCI-H23 lung
  GI50: 14.7 µM
  TGI: > 100 µM
OVCAR-4 ovarian
  GI50: 2.86 µM
  TGI: 17.6 µM
SK-MEL-28 melanoma
  GI50: 8.63 µM
  TGI: > 100 µM
COLO 205 colon
  GI50: 3.17 µM
  TGI: 59.8 µM
SW-620 colon
  GI50: 7.55 µM
  TGI: > 100 µM
SN12C renal
  GI50: 46.4 µM
  TGI: > 100 µM
HCT-116 colon
  GI50: 5.04 µM
  TGI: > 100 µM
KM12 colon
  GI50: 4.32 µM
  TGI: > 100 µM
RXF 393 renal
  GI50: 4.21 µM
  TGI: 38.5 µM
SF-295 CNS
  GI50: 4.81 µM
  TGI: 58 µM
HCT-15 colon
  GI50: 3.77 µM
  TGI: > 100 µM
NCI-H460 lung
  GI50: 6.42 µM
  TGI: > 100 µM
ACHN renal
  GI50: 3.89 µM
  TGI: > 100 µM
CCRF-CEM leukemia
  GI50: 3.35 µM
  TGI: > 100 µM
RPMI-8226 leukemia
  GI50: 2.62 µM
  TGI: > 100 µM
HT29 colon
  GI50: 4.63 µM
  TGI: > 100 µM
HOP-62 NSCLC
  GI50: 7.36 µM
  TGI: 27.3 µM
NCI-H226 lung
  GI50: 11.4 µM
  TGI: 37.2 µM
786-0 renal
  GI50: 6.48 µM
  TGI: 52.3 µM
A498 renal
  GI50: 4.54 µM
  TGI: > 100 µM
DU-145 prostate
  GI50: 23.4 µM
  TGI: > 100 µM
UO-31 renal
  GI50: 3.59 µM
  TGI: > 100 µM
SK-MEL-5 melanoma
  GI50: 3.47 µM
  TGI: > 100 µM
SF-268 CNS
  GI50: 10.1 µM
  TGI: 97.3 µM
SK-OV-3 ovarian
  GI50: 10.9 µM
  TGI: > 100 µM
OVCAR-5 ovarian
  GI50: 5.76 µM
  TGI: > 100 µM
UACC-257 melanoma
  GI50: 8.91 µM
  TGI: > 100 µM
SF-539 CNS
  GI50: 11.3 µM
  TGI: 28.7 µM
U251 CNS
  GI50: 12.5 µM
  TGI: > 100 µM
BT-549 breast
  GI50: 6.14 µM
  TGI: 39.8 µM
UACC-62 melanoma
  GI50: 6.3 µM
  TGI: > 100 µM
HCC-2998 colon
  GI50: 6.36 µM
  TGI: > 100 µM
T-47D breast
  GI50: 2.44 µM
  TGI: 24.8 µM
NCI/ADR-RES ovarian
  GI50: 5.51 µM
  TGI: 33.8 µM
NCI-H522 lung
  GI50: 10.8 µM
  TGI: 68.2 µM
SNB-75 CNS
  GI50: 2.2 µM
  TGI: 10.5 µM
MDA-MB-231 breast
  GI50: 9.97 µM
  TGI: > 100 µM
HS 578T breast
  GI50: 12.2 µM
  TGI: > 100 µM
HOP-92 NSCLC
  GI50: 1.74 µM
  TGI: 23.7 µM
MDA-MB-435
  GI50: 3.6 µM
  TGI: > 100 µM
MCF7 breast
  GI50: 3.1 µM
  TGI: > 100 µM
OVCAR-8 ovarian
  GI50: 3.93 µM
  TGI: 22 µM
SK-MEL-2 melanoma
  GI50: 4.07 µM
  TGI: 41.1 µM
K-562 leukemia
  GI50: 5.13 µM
  TGI: > 100 µM
IGROV1 ovarian
  GI50: 5.9 µM
  TGI: > 100 µM
OVCAR-3 ovarian
  GI50: 7.91 µM
  TGI: > 100 µM
HL-60(TB) leukemia
  GI50: 3.28 µM
  TGI: > 100 µM
PC-3 prostate
  GI50: 3.69 µM
  TGI: > 100 µM

## NCCn1c2c(c3ccccc3c1=O)C(=O)c1ccccc1-2
MOLT-4 leukemia
  GI50: < 0.0378 µM
  TGI: 0.095 µM
A549 NSCLC
  TGI: 0.676 µM
SNB-19 CNS
  GI50: 0.251 µM
  TGI: 2.09 µM
LOX IMVI melanoma
  GI50: 0.347 µM
  TGI: 1.78 µM
MALME-3M melanoma
  GI50: 0.577 µM
  TGI: 3.2 µM
NCI-H23 lung
  GI50: 0.237 µM
  TGI: 1.86 µM
OVCAR-4 ovarian
  GI50: 0.982 µM
  TGI: 3.48 µM
SK-MEL-28 melanoma
  GI50: 1.46 µM
  TGI: 3.14 µM
CAKI-1 renal
  GI50: 0.129 µM
  TGI: 0.887 µM
COLO 205 colon
  GI50: 0.605 µM
  TGI: 3.99 µM
SW-620 colon
  GI50: 0.147 µM
  TGI: 4.32 µM
SN12C renal
  GI50: 0.266 µM
  TGI: 2.13 µM
TK-10 renal
  GI50: 0.778 µM
  TGI: 3.64 µM
HCT-116 colon
  GI50: 0.234 µM
  TGI: 1.56 µM
KM12 colon
  GI50: 0.325 µM
  TGI: 2.38 µM
RXF 393 renal
  GI50: 1.87 µM
  TGI: 6.55 µM
SF-295 CNS
  GI50: 0.315 µM
  TGI: 1.48 µM
HCT-15 colon
  GI50: 0.271 µM
  TGI: 2.32 µM
NCI-H460 lung
  TGI: 6.4 µM
ACHN renal
  GI50: < 0.0453 µM
  TGI: 0.31 µM
CCRF-CEM leukemia
  GI50: 0.33 µM
  TGI: 1.74 µM
RPMI-8226 leukemia
  GI50: 0.338 µM
  TGI: 1.5 µM
HT29 colon
  GI50: 0.401 µM
  TGI: 5.22 µM
HOP-62 NSCLC
  GI50: 0.369 µM
  TGI: 1.1 µM
NCI-H226 lung
  GI50: 0.452 µM
  TGI: 3.02 µM
786-0 renal
  GI50: 0.552 µM
  TGI: 1.78 µM
A498 renal
  GI50: 0.476 µM
  TGI: 5.49 µM
DU-145 prostate
  TGI: 2.58 µM
UO-31 renal
  GI50: 0.458 µM
  TGI: 5.33 µM
EKVX NSCLC
  GI50: 1.48 µM
  TGI: 4.48 µM
SK-MEL-5 melanoma
  GI50: 0.386 µM
  TGI: 1.9 µM
SF-268 CNS
  GI50: 1.32 µM
  TGI: 8.99 µM
SK-OV-3 ovarian
  GI50: 0.528 µM
  TGI: 2.55 µM
OVCAR-5 ovarian
  GI50: 0.674 µM
  TGI: 2.57 µM
UACC-257 melanoma
  GI50: 0.64 µM
  TGI: 2.64 µM
SF-539 CNS
  GI50: 0.211 µM
  TGI: 1.06 µM
U251 CNS
  GI50: 0.544 µM
  TGI: 3.59 µM
BT-549 breast
  GI50: 2.42 µM
  TGI: 10.1 µM
UACC-62 melanoma
  GI50: 0.833 µM
  TGI: 5.69 µM
HCC-2998 colon
  GI50: 0.329 µM
  TGI: 1.64 µM
T-47D breast
  GI50: 0.308 µM
  TGI: 1.28 µM
NCI/ADR-RES ovarian
  GI50: 0.647 µM
  TGI: 3.3 µM
NCI-H522 lung
  GI50: 1.24 µM
  TGI: > 21.7 µM
SNB-75 CNS
  GI50: 1.04 µM
  TGI: 3.2 µM
MDA-MB-231 breast
  GI50: 0.431 µM
  TGI: 1.49 µM
HS 578T breast
  GI50: 1.58 µM
  TGI: 6.66 µM
HOP-92 NSCLC
  GI50: 0.626 µM
  TGI: 6.24 µM
MDA-MB-435
  GI50: 0.897 µM
  TGI: 2.51 µM
MCF7 breast
  GI50: 0.292 µM
  TGI: 12.6 µM
OVCAR-8 ovarian
  GI50: 0.0915 µM
  TGI: 1.57 µM
SK-MEL-2 melanoma
  GI50: 2.7 µM
  TGI: 9.71 µM
K-562 leukemia
  GI50: 0.231 µM
  TGI: 3.46 µM
IGROV1 ovarian
  GI50: 0.592 µM
  TGI: > 45.8 µM
OVCAR-3 ovarian
  GI50: 0.681 µM
  TGI: 2.53 µM
HL-60(TB) leukemia
  GI50: 0.162 µM
  TGI: 0.611 µM
PC-3 prostate
  GI50: 1.11 µM
  TGI: 8.73 µM

From PubChem BioAssay (NCI)
